These results are taken from US8580836B2, “Plant disease control composition and method of controlling plant disease” (Sumitomo Chemical Company, Limited, priority 2010, dated 2013).

SMILES strings stand for the structures. Some results are limits rather than exact numbers.

Format in all cases: in vivo
Experiment [1] deals with Phakopsora pachyrhizi. Description: Test Example 5: test of effect on Phakopsora pachyrhizi on soybean, foliar spray. Particulars: soybean (Natto shoryu), inoculated 14 days after spraying, lesion area of first trifoliate. As to the method:
(§1) Based on the lesion areas in the treated plot and the non-treated plot, the effect of the treated plot was calculated according to the following formula (I). The results are shown in [Table 1]. Effect(%)=(1−(lesion area in treated plot)/(lesion area in non-treated plot))×100 formula (1)
(§2) Test of Effect on Phakopsora pachyrhizi
(§3) A plastic pot was stuffed with a soil, soybean (variety; Natto shoryu) was sown on this, and allowed to grow in a greenhouse until unfolding of the unifoliate. The present carboxamide compounds (2) and (3) and racemic N-(1,1,3-trimethylindan-4-yl)-1-methyl-3-difluoromethylpyrazole-4-carboxamide (hereinafter, referred to as racemic compound (B)) and racemic N-(1,1,3-trimethylindan-4-yl)-1,3,5-trimethylpyrazole-4-carboxamide (hereinafter, referred to as racemic compound (C)) were prepared into formulations according to Formulation Example 6, then, the formulations were diluted with water to attain a prescribed concentration, and sprayed to foliar part so as to satisfactorily adhere to the leaf surfaces of the soybean. The soybean was further cultivated at room temperature for 14 days, and grown until unfolding of the first trifoliate. The plant was inoculated with an aqueous suspension of Phakopsora pachyrhizi spores by spraying. After inoculation, the plant was allowed to stand under humid condition at 23° C. overnight, further, allowed to stand for 7 days at room temperature, then, the lesion area of the first trifoliate was checked.
Based on the lesion areas in the treated plot and the non-treated plot, the effect of the treated plot was calculated according to the above-described formula (I). The results are shown in [Table 2].

The test system of experiment [2] is Mycosphaerella graminicola (Septoria tritici). Description: Test of effect of preventing Mycosphaerella graminicola (Septoria tritici) on wheat, foliar spray. The settings on record: 50 ppm foliar spray; wheat (Apogee); inoculated two days after spraying. As to the method: The control effect was evaluated by visually observing the area of a lesion on a test plant in investigation, and comparing the area of a lesion on a plant treated with a test composition and the area of a lesion on a non-treated plant.
Test of Effect of Preventing Mycosphaerella graminicola (Septoria tritici)
A plastic pot was stuffed with a soil, wheat (variety; Apogee) was sown on this, and allowed to grow in a greenhouse for 10 days. […] After spraying, the plant was air-dried, and two days after, inoculated with an aqueous suspension of Septoria tritici spores by spraying. After inoculation, the plant was first allowed to stand under humid condition at 18° C. for 3 days, further, allowed to stand for 14 to 18 days under illumination, then, the lesion area was checked. As a result, the lesion on the plant treated with the present carboxamide compounds (1), (2) and (3) was 10% or less of the lesion area on a non-treated plant.
The same test was carried out excepting the application concentration, using racemic N-(1,1,3-trimethylindan-4-yl)-1-methyl-3-trifluoromethylpyrazole-4-carboxylic amide (hereinafter, referred to as racemic compound (A)) instead of the present carboxamide compound. As a result, the lesion area on the plant treated with 50 ppm of the racemic compound (A) was 75% or more of the lesion area on a non-treated plant.

The test system of experiment [3] is Phakopsora pachyrhizi. Description: Test Example 4: test of effect on Phakopsora pachyrhizi on soybean, foliar spray. The settings on record: 50 ppm; soybean (Natto shoryu); inoculated 14 days after spraying; lesion area of first trifoliate. The method, then: as §2
as §3, with “carboxamide” for “carboxamide compounds (2) and (3) and racemic N-(1,1,3-trimethylindan-4-yl)-1-methyl-3-difluoromethylpyrazole-4-carboxamide (hereinafter, referred to as racemic”, “compound (1) was” for “compound (B)) and racemic N-(1,1,3-trimethylindan-4-yl)-1,3,5-trimethylpyrazole-4-carboxamide (hereinafter, referred to as racemic compound (C)) were”, “cultivated in greenhouse” for “cultivated at room temperature”, “first trifolidate.” for “first trifoliate.”
as §1

On to `CC1CC(C)(C)c2cccc(NC(=O)c3cn(C)nc3C(F)F)c21` (racemic) [Racemic compound (B), N-(1,1,3-trimethylindan-4-yl)-1-methyl-3-difluoromethylpyrazole-4-carboxamide, reference compound], for which the “Effect [%]” value in the experiment with Phakopsora pachyrhizi [1] (200 ppm) came to 46.7%.

For the molecule `Cc1nn(C)c(C)c1C(=O)Nc1cccc2c1C(C)CC2(C)C` (racemic) [Racemic compound (C), N-(1,1,3-trimethylindan-4-yl)-1,3,5-trimethylpyrazole-4-carboxamide, reference compound], the “Effect [%]” value with Phakopsora pachyrhizi [1] (200 ppm) was 76.5%.

With `CC1CC(C)(C)c2cccc(NC(=O)c3cn(C)nc3C(F)(F)F)c21` (racemic) [racemic compound (A), N-(1,1,3-trimethylindan-4-yl)-1-methyl-3-trifluoromethylpyrazole-4-carboxylic amide], the “lesion area on treated plant relative to lesion area on a non-treated plant” value in experiment [2] is recorded as at least 75%.

On to `C[C@@H]1CC(C)(C)c2cccc(NC(=O)c3cn(C)nc3C(F)(F)F)c21` [present carboxamide compound (1), (R)-(−)-N-(1,1,3-trimethylindan-4-yl)-1-methyl-3-trifluoromethylpyrazole-4-carboxamide], for which, in the experiment on Phakopsora pachyrhizi [3], the “Effect [%]” value turned out to be 98.1%.

For the molecule `C[C@@H]1CC(C)(C)c2cccc(NC(=O)c3cn(C)nc3C(F)F)c21` [present carboxamide compound (2), (R)-(−)-N-(1,1,3-trimethylindan-4-yl)-1-methyl-3-difluoromethylpyrazole-4-carboxamide], the entries for the “Effect [%]” value in the experiment with Phakopsora pachyrhizi [1] (100 ppm) and in the experiment on Phakopsora pachyrhizi [1] (200 ppm) were 77.1% and 100%, respectively.

As to `Cc1nn(C)c(C)c1C(=O)Nc1cccc2c1[C@H](C)CC2(C)C` [present carboxamide compound (3), (R)-(−)-N-(1,1,3-trimethylindan-4-yl)-1,3,5-trimethylpyrazole-4-carboxamide], the entries for the “Effect [%]” value with Phakopsora pachyrhizi [1] (100 ppm) and in the experiment on Phakopsora pachyrhizi [1] (200 ppm) were 98.4% and 100%, respectively.
